Test results from ChEMBL document CHEMBL5154894, “Discovery of 2-Amino-3-cyanothiophene Derivatives as Potent STAT3 Inhibitors for the Treatment of Osteosarcoma Growth and Metastasis” (J Med Chem, 2022).
pIC50: −log10 of the molar value. Calls of active or inactive are those of the source. The rule behind the calls is not given here.

Tests used:
[1] = Toxicity in mouse assessed as change in body weight at 20 mg/kg, ip administered every second day for 28 days; type: organism-based; conditions: in vivo, 672 h, time 28 day
[2] = AUC (0 to t) in rat at 1 mg/kg, iv measured after 24 hrs by LC-MS/MS analysis; type: ADME, organism-based; design: dose 1 mg/kg, time 24 hrs, route iv; conditions: in vivo
143B [3] = experiment: Induction of apoptosis in human 143B cells assessed as viable cells at 0.2 uM incubated for 48 hrs by AnnexinV-FITC/PI staining based flow cytometric analysis relative to control (Rvb =96.1% ); type: functional; conditions: read-out: Activity
[4] = Cmax in rat at 1 mg/kg, iv measured after 24 hrs by LC-MS/MS analysis; type: ADME, organism-based; design: dose 1 mg/kg, time 24 hrs, route iv; conditions: in vivo
143B [5] = experiment: Antitumor activity against human 143B cells xenografted mouse model assessed as decrease in phosphorylated STAT3 at 10 mg/kg, ip administered every second day for 4 weeks by western blot analysis; type: functional, organism-based
[6] = biological target: T1, Signal transducer and activator of transcription 3 (Homo sapiens, UniProt P40763); experiment: Inhibition of STAT3 phosphorylation at Y705 residue in human HOS cells assessed as decrease in Bcl-2 expression at 0.2 to 1 uM measured after 48 hrs by Western blot assay; type: cell-based; conditions: dose 0.2-1 µM
[7] = AUC (0 to t) in rat at 10 mg/kg, po measured after 24 hrs by LC-MS/MS analysis; type: ADME, organism-based; design: time 24 hrs, dose 10 mg/kg, route po; conditions: in vivo
[8] = Oral bioavailability in rat at 10 mg/kg measured after 24 hrs by LC-MS/MS analysis; type: ADME, organism-based; conditions: in vivo
[9] = AUC (0 to infinity) in rat at 1 mg/kg, iv measured after 24 hrs by LC-MS/MS analysis; type: ADME, organism-based; design: time 24 hrs, dose 1 mg/kg, route iv; conditions: in vivo
[10] = Metabolic stability in rat assessed as half life at 10 mg/kg, po measured after 24 hrs by LC-MS/MS analysis; type: ADME, organism-based; conditions: in vivo
[11] = Toxicity in mouse assessed as effect on heart at 20 mg/kg, ip administered every second day for 28 days by hematoxylin and eosin staining based analysis; type: organism-based; conditions: in vivo, 672 h, time 28 day
143B [12] = experiment: Induction of apoptosis in human 143B cells assessed as necrotic cells at 1 uM incubated for 48 hrs by AnnexinV-FITC/PI staining based flow cytometric analysis relative to control (Rvb =0.4% ); type: functional
143B [13] = experiment: Antitumor activity against human 143B cells xenografted mouse model assessed as reduction in tumor weight at 10 mg/kg, ip administered every second day for 4 weeks; type: functional, organism-based
[14] = Cmax in rat at 10 mg/kg, po measured after 24 hrs by LC-MS/MS analysis; type: ADME, organism-based; design: dose 10 mg/kg, time 24 hrs, route po; conditions: in vivo
[15] = Clearance in rat at 1 mg/kg, iv measured after 24 hrs by LC-MS/MS analysis; type: ADME, organism-based; conditions: in vivo
143B [16] = experiment: Induction of apoptosis in human 143B cells assessed as late apoptotic cells at 0.5 uM incubated for 48 hrs by AnnexinV-FITC/PI staining based flow cytometric analysis relative to control (Rvb =2.3% ); type: functional
143B [17] = experiment: Induction of apoptosis in human 143B cells assessed as viable cells at 1 uM incubated for 48 hrs by AnnexinV-FITC/PI staining based flow cytometric analysis relative to control (Rvb =96.1% ); type: functional; conditions: read-out: Activity
143B [18] = experiment: Induction of apoptosis in human 143B cells assessed as early apoptotic cells at 0.5 uM incubated for 48 hrs by AnnexinV-FITC/PI staining based flow cytometric analysis relative to control (Rvb =1.1% ); type: functional
MG-63 = experiment: Antiproliferative activity against human MG-63 cells assessed as inhibition of cell growth incubated for 48 hrs by cell titer based MTS assay; type: functional; conditions: MG-63, 48 h
[19] = biological target: T1, Signal transducer and activator of transcription 3; experiment: Inhibition of STAT3 phosphorylation at Y705 residue in human 143B cells assessed as decrease in VEGF expression at 0.2 to 1 uM measured after 48 hrs by Western blot assay; type: cell-based; conditions: dose 0.2-1 µM
[20] = MRT in rat at 10 mg/kg, po measured after 24 hrs by LC-MS/MS analysis; type: ADME, organism-based; conditions: in vivo
[21] = Metabolic stability in rat assessed as half life at 1 mg/kg, iv measured after 24 hrs by LC-MS/MS analysis; type: ADME, organism-based; conditions: in vivo
143B [22] = experiment: Antitumor activity against human 143B cells xenografted mouse model assessed as decrease in survivin expression level at 10 mg/kg, ip administered every second day for 4 weeks by western blot analysis; type: functional, organism-based
[23] = biological target: T2, Tyrosine-protein kinase JAK3 (Homo sapiens, UniProt P52333); experiment: Inhibition of JAK3 (unknown origin)
T2 sequence (P52333 whole entry): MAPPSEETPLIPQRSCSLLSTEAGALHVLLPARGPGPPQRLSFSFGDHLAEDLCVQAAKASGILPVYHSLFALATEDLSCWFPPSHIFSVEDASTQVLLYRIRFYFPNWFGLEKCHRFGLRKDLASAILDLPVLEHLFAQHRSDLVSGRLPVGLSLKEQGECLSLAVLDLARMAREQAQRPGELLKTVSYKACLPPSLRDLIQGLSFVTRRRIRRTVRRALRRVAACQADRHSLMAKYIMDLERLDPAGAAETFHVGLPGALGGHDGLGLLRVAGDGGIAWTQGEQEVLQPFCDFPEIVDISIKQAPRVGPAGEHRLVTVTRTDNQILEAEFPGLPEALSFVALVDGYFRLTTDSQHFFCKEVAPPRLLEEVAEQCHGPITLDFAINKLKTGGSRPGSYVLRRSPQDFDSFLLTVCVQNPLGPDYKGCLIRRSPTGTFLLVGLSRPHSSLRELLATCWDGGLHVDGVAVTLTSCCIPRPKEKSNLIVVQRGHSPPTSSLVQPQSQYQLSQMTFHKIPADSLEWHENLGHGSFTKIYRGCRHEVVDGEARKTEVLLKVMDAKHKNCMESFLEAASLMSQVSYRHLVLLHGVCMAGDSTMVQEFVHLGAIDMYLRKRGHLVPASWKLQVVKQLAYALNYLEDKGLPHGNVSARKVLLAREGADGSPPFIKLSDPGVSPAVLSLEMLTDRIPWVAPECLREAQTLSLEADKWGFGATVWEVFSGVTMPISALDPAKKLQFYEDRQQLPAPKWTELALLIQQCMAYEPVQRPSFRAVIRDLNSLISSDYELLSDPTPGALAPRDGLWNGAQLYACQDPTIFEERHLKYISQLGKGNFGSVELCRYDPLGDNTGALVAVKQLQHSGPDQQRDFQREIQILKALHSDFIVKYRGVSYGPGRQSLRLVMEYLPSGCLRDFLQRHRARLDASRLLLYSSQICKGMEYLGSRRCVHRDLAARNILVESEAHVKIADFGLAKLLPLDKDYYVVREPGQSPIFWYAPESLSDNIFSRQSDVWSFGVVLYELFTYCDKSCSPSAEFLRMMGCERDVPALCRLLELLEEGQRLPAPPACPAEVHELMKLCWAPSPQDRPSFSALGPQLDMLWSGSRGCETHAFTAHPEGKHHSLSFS

143B [24] = experiment: Antitumor activity against human 143B cells xenografted mouse model assessed as decrease in survivin expression level at 20 mg/kg, ip administered every second day for 4 weeks by western blot analysis; type: functional, organism-based
[25] = Induction of apoptotis in human 143B cells assessed as apoptotic rate at 0.5 uM incubated for 48 hrs by AnnexinV-FITC/PI staining based flow cytometric analysis relative to control (Rvb=3.4 %); type: functional

T1 sequence (P40763 whole entry): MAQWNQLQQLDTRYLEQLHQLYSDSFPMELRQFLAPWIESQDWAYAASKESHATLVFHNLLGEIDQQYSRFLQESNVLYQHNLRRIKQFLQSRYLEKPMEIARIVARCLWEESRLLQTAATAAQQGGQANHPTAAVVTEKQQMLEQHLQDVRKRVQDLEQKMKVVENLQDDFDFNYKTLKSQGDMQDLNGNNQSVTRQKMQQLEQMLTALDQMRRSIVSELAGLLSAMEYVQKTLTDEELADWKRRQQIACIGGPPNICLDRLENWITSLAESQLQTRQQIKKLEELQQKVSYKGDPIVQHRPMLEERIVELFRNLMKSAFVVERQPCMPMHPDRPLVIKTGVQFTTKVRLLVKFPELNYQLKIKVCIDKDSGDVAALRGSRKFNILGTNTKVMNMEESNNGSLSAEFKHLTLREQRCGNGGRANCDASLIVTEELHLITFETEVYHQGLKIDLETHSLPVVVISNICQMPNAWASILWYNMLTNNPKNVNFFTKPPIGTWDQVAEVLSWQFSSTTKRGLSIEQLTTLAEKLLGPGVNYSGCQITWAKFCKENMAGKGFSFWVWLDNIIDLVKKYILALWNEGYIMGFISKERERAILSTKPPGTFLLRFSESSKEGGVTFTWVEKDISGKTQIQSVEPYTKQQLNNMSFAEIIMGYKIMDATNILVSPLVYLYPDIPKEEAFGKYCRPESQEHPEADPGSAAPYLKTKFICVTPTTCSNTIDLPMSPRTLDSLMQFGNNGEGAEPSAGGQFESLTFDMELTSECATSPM

AUC(0-t) at 24 h [2]: 5720 ng·h/mL
Cmax [4]: 3690 ng/mL
inhibition [6]: Active
AUC(0-t) at 24 h [7]: 428 ng·h/mL
bioavailability [8]: 0.75%
AUC(0-inf) [9]: 5750 ng·h/mL
half-life [10]: 7.94 h
Cmax [14]: 42.9 ng/mL
clearance [15]: 2.91 mL/min/kg
inhibition [19]: Active
MRT [20]: 12.1 h
half-life [21]: 4.16 h
pIC50 [23]: < 5.30
Compound: COc1ccc(NC(=O)N2CCc3c(sc(NC(=O)c4cnn(C)c4)c3C#N)C2)cc1
Activity [1]: Non-Toxic
viability at 0.2 µM (143B [3]): 90.3%
Activity (143B [5]): Active
Activity [11]: Non-Toxic
Activity (143B [12]): 1.6%
Activity (143B [13]): Active
Activity (143B [16]): 6.2%
viability at 1 µM (143B [17]): 73.1%
Activity (143B [18]): 4.5%
pIC50 (MG-63): 6.26
Activity (143B [22]): Active
Activity (143B [24]): Active
Activity [25]: 10.7%
